What all share (assay type): cell-based
Experiment [1] has as its system Hela cells. Nature of the experiment: fluid phase endocytosis assay (BODIPY-FL dextran internalization). Particulars: for number of endosomes relative to the control: BODIPY-FL dextran 20 min at 37° C., FIG. 3b; for integrated fluorescence intensity per cell relative to the control: data not shown. The procedure:
For the fluid phase endocytosis assay, Hela cells in 96 well plates were washed and incubated for 120 min with the compounds in serum free buffered medium under tissue culture conditions. The medium was then replaced with serum-free buffered medium supplemented with 1 mg/ml BODIPY-FL-Dextran and 10 μM Syto60. Cells were incubated for 20 min at 37° C., then placed on a cooled block and washed extensively with ice cold phosphate buffered saline 10% w/v bovine serum albumin (Serva; Heidelberg, Germany). Plates were imaged by the Opera using 488/633 nm excitation, 3 μm focus height above the coverslip, 1000 ms or 500 ms exposure and 510 nm (50 nm bandpass) or 680 (50 nm bandpass) filters, respectively.
Fluid phase endocytosis was measured using custom written scripts in Metamorph. Cells were identified in the 633 nm excitation SYTO60 image, the nuclei segmented and cells counted. A mask was generated from this image and used to identify cells in overlay of the 488 nm BODIPY-FL dextran image, to create regions of interest around the cell borders and excise them from the image. Background was deducted from the processed BODIPY-FL dextran image that was thresholded to identify endosomes as individual regions of interest. Image pairs with less than 300 cells per field of view were rejected.
A fluid phase endocytosis assay measured the internalization of green fluorescent 40 kDa BODIPY-FI dextran. Dextrans are ideal endocytotic markers for labelling endosomes and macropinosomes. In this assay, endosomes labelled with fluorescent dextran by internalization were readily identified with the Opera instrument (FIG. 2b). Dextran internalization satisfied all the classical prerequisites for an internalization assay—it was temperature dependent, arrested at 4° C. (FIG. 2a), and required a source of energy in the medium. Endocytosis was quantified by analysis of paired images of cells labelled with green dextran and the SYTO60 nuclear counter stain. The analysis was validated on cells that had internalized green fluorescent dextran for 20 min at 37° C. or at 4° C. (FIG. 2c).
To identify compounds affecting GPCR internalization and not affecting housekeeping endocytosis, the kinase and phosphatase inhibitor collection was screened against the fluid phase endocytosis assay (FIG. 3b). The effect of the compounds was evaluated. Four compounds (staurosporine, tyrphostin 9, AG-879, GF 109203×) were identified that reduced the number of endosomes (FIG. 3b) and the integrated intensity per cell relative to the control (data not shown).

Experiment [2] relates to ETAR internalization and fluid phase endocytosis. Nature of the experiment: Overlap of the ETAR internalization and the fluid phase endocytosis screen. Particulars: FIG. 3b. The source says: Overlap of the ETAR internalization and the fluid phase endocytosis screen was used to generate differential information from the two assays.
The test system of experiment [3] is human endothelin A receptor. As to the kind of experiment: ETAR (GPCR) internalization assay, ETAR-EGFP in stably transfected HEK 293 cells. Particulars: for receptor trafficking morphology observed (visual screen of primary hits): stimulation with 40 nM endothelin-1, FIG. 4. An excerpt:
A human endothelin A receptor cDNA clone in pCDNA3.1(−) (Invitrogen Carlsbad, USA) was excised via KpnI/HindIII and fused to the egfp coding sequence of the pEGFP-N1 vector (Clontech, Palo Alto USA) by splice overlap PCR using specific primers. The amplified fragment was digested via KpnI/EcoRV and ligated in the pCDNA3.1(−) vector digested with the same combination of restriction enzymes. The resulting pETAR-EGFP DNA was cloned, checked by sequencing and used for transfection of HEK 293 cells using standard protocols. A recombinant clone was obtained through several cycles of genetecin selection and limiting dilutions. For screening, cells were passed onto coverslip bottomed 96 well plates (Greiner; Longwood, USA, or Whatman; Brentford, UK) at a density of 4·10^3 cells/well for Hela and 2·10^4 cells/well for HEK293 cells, 48 hours in advance.
For the GPCR internalization assay, recombinant HEK cells grown were plated in 96 well plates and incubated overnight in DMEM/F12 containing 10% FBS. The plates were washed and the cells incubated for 120 min under tissue culture conditions with the compounds in 1% serum medium. The compound solutions were then exchanged for a solution with the same compound concentration and supplemented with 40 nM endothelin-1 and 10 μM Syto60. Cells were incubated for 120 min at 22° C. Plates were imaged by the Opera using 488/633 nm excitation, 3 μm focus height above the coverslip, 250 ms or 500 ms exposure and 510 nm (50 nm bandpass) or 680 (50 nm bandpass) filters, respectively. Typically, 5 image pairs (at 488 and 633 nm excitation) per well were acquired.
GPCR translocation was evaluated using scripts within the Acapella script player software environment of the Opera. The script measured translocation of the ETAR-EGFP fusion protein from the plasma membrane into recycling endosomes. Cells were first located in the 633 nm excitation SYTO60 image. Red fluorescent nuclei were identified by thresholding and edge seeking and then segmented to create a mask. The number of cells was counted and the nuclei mask used to generate a new cytoplasmic mask. Subsequently, each cell was individually segmented and cells with at least one bright recycling endosome were identified. Image analysis was performed on- and offline and analyses were rejected if the cell count was beneath 100 per field of view.
The endothelin A GPCR internalization screen was carried out using a stably transfected HEK 293 cell line expressing a fusion protein between the ETAR and a c-terminal copy of the enhanced green fluorescent protein. […] This internalization event was used as the basis for measuring trafficking of the receptor by image analysis. Serum deprived cells were stimulated with endothelin-1 at several concentrations and simultaneously counterstained with DRAQ5 or SYTO60, which are long wavelength excitable DNA and nucleic acid stains, respectively. The cells were stimulated for 120 min at 22-23° C., then imaged on the Opera automated confocal imaging reader. Images of the GFP and red counterstain fluorescence were automatically recorded and used to determine the number of cells where internalization of the receptor had occurred.
Cells were pre-treated with 10 μM compound before stimulation with 40 nM endothelin-1 to ensure a uniform and robust internalization response for the receptor.

Setting [4] is: secondary screen 0.1 μM to 50 μM, FIG. 5.

As usually defined, the EC50 is the midpoint of the concentration-response curve.

`CC(C)(C)c1cc(/C=C(\C#N)C(N)=S)cc(C(C)(C)C)c1O` [AG-879]: the “number of endosomes relative to the control” value in experiment [1] is on record as “reduced”. For the same molecule, the “integrated fluorescence intensity per cell relative to the control” value in experiment [1] (BODIPY-FL dextran) is “reduced”.
For `CN(C)CCCn1cc(C2=C(c3c[nH]c4ccccc34)C(=O)NC2=O)c2ccccc21` [GF 109203X], in experiment [1], the “number of endosomes relative to the control” value is “reduced”. Moreover, the “integrated fluorescence intensity per cell relative to the control” value in experiment [1] (BODIPY-FL dextran) is listed as “reduced”. For the same molecule, the “comparison of the responses in the ETAR internalization and fluid phase endocytosis assays” value (“comparison of the responses” for short) in experiment [2] is on record as “congruent in both assays”.
For the molecule `O=C1Nc2ccc(I)cc2/C1=C/c1cc(Br)c(O)c(Br)c1` [GW 5074], the “hit classification in the primary screen” value in experiment [3] (10 μM compound, 40 nM endothelin-1, FIG. 3b) is recorded as “partial hit”. In experiment [3] (setting [4]), the “concentration at which effect on GPCR internalization was seen (secondary screen)” value was 50 µM. The “effect on accumulation of the receptor in recycling endosomes” value in experiment [3] (versus untreated endothelin-1 stimulated control cells, FIG. 4d) is recorded as “delayed accumulation of the receptor in the recycling endosomes”. Further, the “comparison of the responses” value in experiment [2] is “large difference”.
With `O=S(=O)(NCCNC/C=C/c1ccc(Br)cc1)c1cccc2cnccc12` [H-89], the “receptor trafficking morphology observed (visual screen of primary hits)” value (from here on “receptor trafficking morphology observed”) in experiment [3] (10 μM compound) is recorded as “enhanced accumulation in the recycling endosome”. For the same molecule, the “comparison of the responses” value in experiment [2] is reported as “large difference”.
As for `Cn1cc(C2=C(c3cn(CCCSC(=N)N)c4ccccc34)C(=O)NC2=O)c2ccccc21` [Ro 31-8220], the “receptor trafficking morphology observed” value in experiment [3] (10 μM compound) was “arrest of the receptor at the plasma membrane”. Also, the “comparison of the responses” value in experiment [2] is “large difference”.
For `CC[C@H](C)[C@H](NC(=O)[C@H](CC(=O)O)NC(=O)[C@H](CC(C)C)NC(=O)[C@H](Cc1c[nH]cn1)NC(=O)[C@@H]1CSSC[C@H](N)C(=O)N[C@@H](CO)C(=O)N[C@H]2CSSC[C@H](NC(=O)[C@H](CCC(=O)O)NC(=O)[C@H](CCCCN)NC(=O)[C@H](CC(=O)O)NC(=O)[C@H](CCSC)NC(=O)[C@H](CC(C)C)NC(=O)[C@H](CO)NC(=O)[C@H](CO)NC2=O)C(=O)N[C@@H](C(C)C)C(=O)N[C@@H](Cc2ccc(O)cc2)C(=O)N[C@@H](Cc2ccccc2)C(=O)N1)C(=O)N[C@H](C(=O)N[C@@H](Cc1c[nH]c2ccccc12)C(=O)O)[C@@H](C)CC` [endothelin-1], the “ETAR localization after endothelin-1 stimulation” value in experiment [3] is listed as “internalization of the fluorescent ETAR into an intracellular peri-centriolar compartment”. Moreover, the EC50 in experiment [3] (read-out: EC50 of endothelin stimulation (ETAR-EGFP internalization)) stood at 3.4 nM.
Take `COC(=O)/C=C/c1cc(O)ccc1O` [erbstatin analogue]: in experiment [3] (10 μM compound), the “receptor trafficking morphology observed” value is given as “arrest of the receptor in small vesicular bodies”. For the same molecule, the “comparison of the responses” value in experiment [2] is recorded as “large difference”.
Turning to `O=c1c(-c2ccc(O)cc2)coc2cc(O)cc(O)c12` [genistein], the “number of endosomes relative to the control” value in experiment [1] is reported as “increased”. For the same molecule, the “integrated fluorescence intensity per cell relative to the control” value in experiment [1] (BODIPY-FL dextran) is reported as “significantly increased”.
In the case of `CN[C@@H]1C[C@H]2O[C@@](C)([C@@H]1OC)n1c3ccccc3c3c4c(c5c6ccccc6n2c5c31)C(=O)NC4` [staurosporine], in experiment [1] (BODIPY-FL dextran), the endosomal pixel intensity entry is “slightly increased” and the “integrated fluorescence intensity per cell relative to the control” value was “reduced”. Further, the “number of endosomes relative to the control” value in experiment [1] is recorded as “reduced”. The “receptor trafficking morphology observed” value in experiment [3] (10 μM compound) is listed as “arrest of the receptor at the plasma membrane”. Moreover, in experiment [3] (setting [4]), the “effective concentration for blocking GPCR internalization (secondary screen)” value stood at 100 nM. Also, the “comparison of the responses” value in experiment [2] is given as “congruent in both assays”.
Turning to `CC(C)(C)c1cc(C=C(C#N)C#N)cc(C(C)(C)C)c1O` [tyrphostin 9], the “number of endosomes relative to the control” value in experiment [1] is “reduced”. In experiment [1] (BODIPY-FL dextran), the “integrated fluorescence intensity per cell relative to the control” value is “reduced”.

The record behind these values is US20090117598A1, “Method for identifying compounds that affect a transport of a protein through a membrane trafficking pathway” (priority 2004, published 2009).
